According to ChEMBL document CHEMBL3351708, “Synthesis of new pyridazino[4,5-b]indol-4-ones and pyridazin-3(2H)-one analogs as DYRK1A inhibitors” (Bioorg Med Chem Lett, 2014):

Assays:
[1] = Antiproliferative activity against human fibroblast cells; assay type: cell-based
[2] = Antiproliferative activity against human HCT116 cells; assay type: functional, cell-based; conditions: HCT-116
[3] = Antiproliferative activity against human Caco2 cells; assay type: functional, cell-based; conditions: Caco-2
[4] = target: Glycogen synthase kinase-3 (Homo sapiens, UniProt P49840+P49841); test: Inhibition of GSK3alpha/beta (unknown origin); assay type: protein assay
[5] = target: Dual specificity tyrosine-phosphorylation-regulated kinase 1A (Homo sapiens, UniProt Q13627); test: Inhibition of DYRK1A (unknown origin)
[6] = Antiproliferative activity against human PC3 cells; assay type: functional, cell-based; conditions: PC-3
[7] = target: Cyclin-dependent kinase 5/CDK5 activator 1 (Homo sapiens, UniProt Q00535); test: Inhibition of CDK5/p25 (unknown origin); assay type: protein-complex assay
[8] = Antiproliferative activity against human HuH7 cells; assay type: functional, cell-based; conditions: Huh-7
[9] = target: Phosphatidylinositol 4,5-bisphosphate 3-kinase catalytic subunit alpha isoform (Homo sapiens, UniProt P42336); test: Inhibition of p110alpha (unknown origin)
[10] = tested on: MDA-MB-231; test: Antiproliferative activity against human MDA-MB-231 cells; assay type: functional, cell-based
[11] = tested on: NCI-H727; test: Antiproliferative activity against human NCI-H727 cells; assay type: functional, cell-based
[12] = Antiproliferative activity against human HuH7 cells assessed as decrease in cell growth; assay type: functional, Huh-7
[13] = tested on: MDA-MB-231; test: Antiproliferative activity against human MDA-MB-231 cells assessed as decrease in cell growth; assay type: functional
[14] = Antiproliferative activity against human HCT116 cells assessed as decrease in cell growth; assay type: functional, HCT-116

Chain of Cyclin-dependent kinase 5/CDK5 activator 1 (Q00535 whole entry): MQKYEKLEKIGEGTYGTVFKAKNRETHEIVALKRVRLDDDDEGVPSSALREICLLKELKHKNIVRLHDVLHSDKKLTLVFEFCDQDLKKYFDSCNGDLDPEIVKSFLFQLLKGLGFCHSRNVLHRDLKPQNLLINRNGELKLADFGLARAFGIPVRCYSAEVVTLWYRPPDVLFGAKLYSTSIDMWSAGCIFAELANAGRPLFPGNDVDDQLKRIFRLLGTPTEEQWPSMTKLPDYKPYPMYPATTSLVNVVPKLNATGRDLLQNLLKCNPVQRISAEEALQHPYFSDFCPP
Chain of Cyclin-dependent kinase 5/CDK5 activator 1 (Q15078 whole entry, further chain): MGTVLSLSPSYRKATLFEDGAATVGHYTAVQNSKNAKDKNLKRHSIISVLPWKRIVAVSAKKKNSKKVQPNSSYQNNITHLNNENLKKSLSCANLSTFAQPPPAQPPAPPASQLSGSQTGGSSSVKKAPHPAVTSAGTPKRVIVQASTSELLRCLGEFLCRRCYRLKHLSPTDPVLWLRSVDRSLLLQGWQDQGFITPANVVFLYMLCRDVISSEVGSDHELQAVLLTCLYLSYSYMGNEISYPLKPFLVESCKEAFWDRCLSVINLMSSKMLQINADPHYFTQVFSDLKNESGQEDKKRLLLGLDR
Chain of Phosphatidylinositol 4,5-bisphosphate 3-kinase catalytic subunit alpha isoform (P42336 whole entry, canonical isoform): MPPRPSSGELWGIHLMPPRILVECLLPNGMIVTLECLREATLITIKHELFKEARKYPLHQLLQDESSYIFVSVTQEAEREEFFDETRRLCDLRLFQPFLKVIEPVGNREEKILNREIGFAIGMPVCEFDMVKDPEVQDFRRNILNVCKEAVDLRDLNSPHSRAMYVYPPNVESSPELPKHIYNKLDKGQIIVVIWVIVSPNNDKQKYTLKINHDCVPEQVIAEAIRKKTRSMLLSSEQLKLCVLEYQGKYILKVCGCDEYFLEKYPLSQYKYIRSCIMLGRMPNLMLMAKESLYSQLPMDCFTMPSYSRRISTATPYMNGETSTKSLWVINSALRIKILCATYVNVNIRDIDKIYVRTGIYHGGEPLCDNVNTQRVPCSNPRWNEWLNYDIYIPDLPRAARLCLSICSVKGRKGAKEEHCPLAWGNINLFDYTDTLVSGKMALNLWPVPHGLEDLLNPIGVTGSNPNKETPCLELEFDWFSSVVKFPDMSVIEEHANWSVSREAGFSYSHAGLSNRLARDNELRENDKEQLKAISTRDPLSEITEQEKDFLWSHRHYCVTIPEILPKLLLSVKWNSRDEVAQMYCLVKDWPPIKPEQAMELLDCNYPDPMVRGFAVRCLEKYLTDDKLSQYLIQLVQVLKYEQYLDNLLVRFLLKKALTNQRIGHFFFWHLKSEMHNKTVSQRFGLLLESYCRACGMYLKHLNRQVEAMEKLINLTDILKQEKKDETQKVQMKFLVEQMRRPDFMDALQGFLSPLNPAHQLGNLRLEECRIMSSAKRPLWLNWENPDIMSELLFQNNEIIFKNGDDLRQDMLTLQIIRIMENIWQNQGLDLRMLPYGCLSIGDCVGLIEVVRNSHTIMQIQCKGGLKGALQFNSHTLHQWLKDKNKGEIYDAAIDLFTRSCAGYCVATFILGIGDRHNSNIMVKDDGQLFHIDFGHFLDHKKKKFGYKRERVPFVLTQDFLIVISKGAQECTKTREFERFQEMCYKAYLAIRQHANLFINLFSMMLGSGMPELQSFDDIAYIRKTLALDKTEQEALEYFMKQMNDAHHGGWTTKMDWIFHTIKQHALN

Structure (SMILES) | IC50 [1] [µM] | IC50 [2] [µM] | IC50 [3] [µM] | IC50 [4] [µM] | IC50 [5] [µM] | IC50 [6] [µM] | IC50 [7] [µM] | IC50 [8] [µM] | IC50 [9] [µM] | IC50 [10] [µM] | IC50 [11] [µM] | inhibition (INH) [12] [%] | inhibition (INH) [13] [%] | inhibition (INH) [14] [%]
COc1ccc2[nH]c3c(=O)[nH]nc(C)c3c2c1 | 20 | 15 | 8 | > 10 | 5 | 7 | > 10 | 3 | – | – | – | – | – | –
COc1ccc2[nH]c3c(=O)[nH]nc(-c4ccccc4)c3c2c1 | – | – | – | 1.3 | > 10 | – | – | – | > 10 | – | – | – | – | –
COc1ccc(-c2n[nH]c(=O)c3[nH]c4ccc(OC)cc4c23)cc1 | > 25 | > 25 | > 25 | 1.4 | 1.5 | > 25 | > 10 | > 25 | > 10 | > 25 | > 25 | – | – | –
COc1ccc2[nH]c3c(=O)[nH]nc(-c4ccc(C(F)(F)F)cc4)c3c2c1 | > 25 | > 25 | > 25 | > 10 | > 10 | > 25 | > 10 | > 25 | 6.9 | > 25 | > 25 | – | – | –
COc1ccc2[nH]c3c(=O)[nH]nc(-c4ccco4)c3c2c1 | > 25 | 3 | 0.6 | > 10 | 0.22 | > 25 | > 10 | 0.25 | > 10 | 0.3 | > 25 | 50 | 50 | 50
COc1ccc(Nc2cc(C)n[nH]c2=O)cc1 | – | – | – | > 10 | > 10 | – | > 10 | – | – | – | – | – | – | –
COc1ccc(Nc2cc(-c3ccccc3)n[nH]c2=O)cc1 | > 25 | > 25 | > 25 | > 10 | > 10 | > 25 | > 10 | > 25 | > 10 | > 25 | > 25 | – | – | –
COc1ccc(Nc2cc(-c3ccc(OC)cc3)n[nH]c2=O)cc1 | – | – | – | 2.5 | 5.1 | – | > 10 | – | – | – | – | – | – | –
COc1ccc(Nc2cc(-c3ccco3)n[nH]c2=O)cc1 | > 25 | > 25 | > 25 | > 10 | > 10 | > 25 | > 10 | > 25 | > 10 | > 25 | > 25 | – | – | –
COc1ccc(Nc2cc(-c3ccncc3)n[nH]c2=O)cc1 | > 25 | > 25 | > 25 | 9.6 | 0.61 | > 25 | > 10 | > 25 | > 10 | > 25 | > 25 | – | – | –
